Read-outs that look alike come from different tables or passages of the source.
Columns and labels:
[1] = target: 27-mer model RNA sequence of the 16S A-site; experiment: MASS mass spectrometry binding assay with 16S A-site 27-mer RNA; design: species or system prokaryotic
Method: (§1) The compounds are screened for binding affinity using MASS or conventional high-throughput functional screens. The best scoring compounds from docking a 256-member library against the 16S A-site ribosomal RNA structure are shown in the table 5 below. The MASS assay was performed with the 27-mer model RNA sequence of the 16S A-site whose NMR structure has been determined. The transcription/translation assay was based on expression of a luciferase plasmid.
A preferred first step of MASS screening involves mixing the RNA target (or targets) with a combinatorial library of ligands designed to bind to a specific site on the target molecule(s). Specific noncovalent complexes formed in solution between the target(s) and any library members are transferred into the gas phase and ionized by ESI. As described herein, from the measured mass difference between the complex and the free target, the identity of the binding ligand can be determined. The dissociation constant of the complex can be determined in two ways: if a ligand with a known binding affinity for the target is available, a relative Kd can be measured by using the known ligand as an internal control and measuring the abundance of the unknown complex to the abundance of the control, alternatively, if no internal control is available, Kd's can be determined by making a series of measurements at different ligand concentrations and deriving a Kd value from the “titration” curve.
In a direct determination of solution phase dissociation constants (Kd's) by mass spectrometry, ESI-MS measurements of a solution containing a fixed concentration of RNA at different concentrations of ligand were obtained. By measuring the ratio of bound:unbound RNA at varying ligand concentrations, the Kd was determined by 1/slope of the “titration curve”. The MS derived value of 110 nM is in good agreement with previously reported literature value of 200 nM.
All mass spectrometry experiments were performed using an Apex II 70e electrospray ionization Fourier transform ion cyclotron resonance mass spectrometer (Bruker Daltonics, Billerica) employing an actively shielded 7 tesla superconducting magnet. RNA solutions were prepared in 50 mM NH4OAc (pH 7), mixed 1:1 v:v with isopropanol to aid desolvation, and infused at a rate of […] using a syringe pump. Ions were formed in a modified electrospray source (Analytica, Branford) employing an off axis, grounded electrospray probe positioned ca. 1.5 cm from the metalized terminus of the glass desolvation capillary biased at 5000 V. A counter-current flow of dry […] gas heated to 225C was employed to assist in the desolvation process. Ions were accumulated in an external ion reservoir comprised of an RF-only hexapole, a skimmer cone, and an auxiliary electrode for 1000 ms prior to transfer into the trapped ion cell for mass analysis. Each spectrum was the result of the coaddition of 16 transients comprised of […] acquired over a 90,909 kHz bandwidth resulting in a 700 ms detection interval. All aspects of pulse sequence control, data acquisition, and post acquisition processing were performed using a Bruker Daltonics datastation running XMASS version 4.0 on a Silicon Graphics (San Jose, Calif.) R5000 computer.
Mass spectrometry experiments were performed in order to detect complex formation between a library containing five aminoglycosides (Sisomicin (Sis), Tobramycin (Tob), Bekanomycin (Bek), Paromomycin (PM), and Livodomycin (LV)) and two RNA targets simultaneously. Signals from the (M-5H+)^5− charge states of free 16S and 18S RNAs are detected at m/z 1801.515 and 1868.338, respectively. The mass spectrometric assay reproduces the known solution binding properties of aminoglycosides to the 16S A site model and an 18S A site model with a neutral mass linker. Consistent with the higher binding affinity of theses aminoglycosides for the 16S A-site relative to the 18S A-site, aminoglycoside complexes are observed only with the 16S rRNA target. […]

[2] = test system: protein synthesis (luciferase reporter); experiment: transcription/translation assay based on expression of a luciferase plasmid; assay type: biochemical; conditions: unit printed only in the Paromomycin cell and b169
Method: as §1

18S A site model = experiment: ESI-FTICR mass spectrometric complex detection with 18S A-site model RNA; assay type: binding, eukaryotic; conditions: mixture of five aminoglycosides, 16S and 18S targets simultaneously
Method: Paromomycin, lividomycin (MW=761.354 Da), sisomicin (MW=447.269 Da), tobramycin (MW=467.2591 Da), and bekanamycin (MW=483.254 Da) were obtained from Sigma (St. Louis, Mo.) and ICN (Costa Mesa, Calif.) and were dissolved to generate 10 mM stock solutions. 2′ methoxy analogs of RNA constructs representing the prokaryotic (16S) rRNA and eukaryotic (18S) rRNA A-site were synthesized in house and precipitated twice from 1 M ammonium acetate following deprotection with ammonia (pH 8.5). The mass-tagged constructs contained an 18-atom mass tag (C12H2509) attached to the 5′-terminus of the RNA oligomer through a phosphodiester linkage.
All mass spectrometry experiments were performed using an Apex II 70e electrospray ionization Fourier transform ion cyclotron resonance mass spectrometer (Bruker Daltonics, Billerica) employing an actively shielded 7 tesla superconducting magnet. […]
Mass spectrometry experiments were performed in order to detect complex formation between a library containing five aminoglycosides (Sisomicin (Sis), Tobramycin (Tob), Bekanomycin (Bek), Paromomycin (PM), and Livodomycin (LV)) and two RNA targets simultaneously. Signals from the (M-5H+)^5− charge states of free 16S and 18S RNAs are detected at m/z 1801.515 and 1868.338, respectively. […]

16S A-site RNA = conditions: previously reported / solution value for 16S A site; read-out: literature Kd; cited from earlier work

Which results are given for `NC[C@@H]1O[C@H](O[C@H]2[C@@H](O)[C@H](O[C@@H]3[C@@H](O)[C@H](N)C[C@H](N)[C@H]3O[C@H]3O[C@H](CO)[C@@H](O)[C@H](O)[C@H]3N)O[C@@H]2CO)[C@H](N)[C@@H](O)[C@@H]1O` [Paromomycin]?
Kd ([1]; 16S A site 27mer, ESI-MS titration, read-out: KD measured by mass spectrometry): 110 nM; Kd ([1]; 27-mer model RNA of the 16S A-site, unit printed only in the Paromomycin cell and b169, read-out: MASS KD): 500 nM; complexes detected with the 16S A site 27mer RNA ([1]; ESI-FTICR, mixture of five aminoglycosides, 16S and 18S targets simultaneously): High affinity complexes; Activity: Inhibition of protein synthesis in transcription/translation assay for luciferase reporter [2]: 0.3 µM; complexes with the 18S A site model (18S A site model): absence; Kd (16S A-site RNA): 200 nM
